Assay results as given in patent US20260070945A1, “MACROCYCLIC IMMUNOMODULATORS” (Bristol-Myers Squibb Company, priority 2022, published 2026).
Where a SMILES comes first, the peptide text is derived from it. Bridges are numbered along the chain shown (N, C = ends). [ ]: non-standard residue; d: D form. The star is where a group is joined. ξ: configuration not given here. Phe(4-COOH) = N[C@@H](Cc1ccc(C(=O)O)cc1)C(=O)O; Bip = N[C@@H](Cc1ccc(-c2ccccc2)cc1)C(=O)O; Phe(4-CN) = N#Cc1ccc(C[C@H](N)C(=O)O)cc1; Phe(3-F) = N[C@@H](Cc1cccc(F)c1)C(=O)O; Phe(3-Me) = Cc1cccc(C[C@H](N)C(=O)O)c1; Val(3-OH) = CC(C)(O)[C@H](N)C(=O)O; Cha = N[C@@H](CC1CCCCC1)C(=O)O; Cit = NC(=O)NCCC[C@H](N)C(=O)O; Ile(3ξ) = CCC(C)[C@H](N)C(=O)O; Thr(3ξ) = CC(O)[C@H](N)C(=O)O; Carboxymethyl = O=C(O)C*; NMeA = CN[C@@H](C)C(=O)O; Aun = NCCCCCCCCCCC(=O)O; Dab = NCC[C@H](N)C(=O)O; AEEA = NCCOCCOCC(=O)O

The molecules below were run against T1, PD-1/PD-L1 interaction (PE-labeled human PD-L1-Ig binding to Jurkat cell line over-expressing human PD-1) (Homo sapiens, UniProt Q15116) (assay: Jurkat-PD-1 Cell Binding High-Content Screening Assay (CBA)). Conditions: PE-labeled PD-L1-Ig 20 nM final, Jurkat-hPD-1 cells; read-out: Jurkat HPD1 PDL1 IC50.
T1 construct: expressed in transfected cells; host or cells: Jurkat
How it was run: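 High-content imaging read-out of PE-PD-L1-Ig binding (20 nM final, 1 h) to Jurkat-hPD-1 cells, after 2 h compound exposure at 37 °C in DMEM with 10% FCS. Nuclei counterstained with Hoechst 33342 after paraformaldehyde fixation.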

T1 sequence (Q15116 25-288): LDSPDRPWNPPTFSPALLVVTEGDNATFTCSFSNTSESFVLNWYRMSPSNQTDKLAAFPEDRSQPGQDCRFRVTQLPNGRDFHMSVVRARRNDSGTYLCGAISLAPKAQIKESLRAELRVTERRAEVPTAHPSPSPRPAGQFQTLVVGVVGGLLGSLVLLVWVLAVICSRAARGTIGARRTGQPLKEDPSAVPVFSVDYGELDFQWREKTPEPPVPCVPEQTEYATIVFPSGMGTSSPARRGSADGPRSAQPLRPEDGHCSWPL

SMILES | IC50 [nM]
CCC(C)[C@@H]1NC(=O)[C@H](Cc2ccc(-c3ccccc3)cc2)NC(=O)[C@H](C(C)C)NC(=O)[C@H](Cc2c[nH]c3ccccc23)NC(=O)[C@H](CC(=O)O)NC(=O)[C@H](Cc2ccc(OCC(=O)O)cc2)NC(=O)[C@H](Cc2cnc[nH]2)NC(=O)CSC[C@@H](C(=O)N[C@H](C)C(=O)NCCOCCOCC(=O)NCCCCCCCCCCC(=O)O)NC(=O)[C@H](C(C)O)NC(=O)[C@H](C(C)(C)O)NC(=O)[C@H](CC2CCCCC2)NC(=O)[C@H](CCN)NC(=O)[C@@H](CC(C)C)NC(=O)[C@H](C)N(C)C1=O (stereo partly drawn) [Example 2514] ({CH2CO}-HY(Carboxymethyl)DWV[Bip][Ile(3ξ)][NMeA][dL][Dab][Cha][Val(3-OH)][Thr(3ξ)]C[dA][AEEA][Aun]-OH; thioether N-14) | 16.8
CC(C)C[C@@H]1NC(=O)[C@H](Cc2c[nH]c3ccccc23)NC(=O)[C@H](CC(=O)O)NC(=O)[C@H](Cc2ccc(OCC(=O)O)cc2)NC(=O)[C@H](Cc2ccc(OCC(=O)O)cc2)NC(=O)CSC[C@@H](C(=O)N[C@@H](CCN)C(=O)NCCOCCOCC(=O)NCCCCCCCCCCC(=O)O)NC(=O)[C@H](CCC(=O)O)NC(=O)[C@H](C(C)(C)O)NC(=O)[C@H](CC2CCCCC2)NC(=O)[C@H](CCN)NC(=O)[C@@H](CC(C)C)NC(=O)[C@H](C)N(C)C(=O)[C@H](CCC(N)=O)NC(=O)[C@H](Cc2ccc(-c3ccccc3)cc2)NC1=O [Example 2516] ({CH2CO}-Y(Carboxymethyl)Y(Carboxymethyl)DWL[Bip]Q[NMeA][dL][Dab][Cha][Val(3-OH)]EC[Dab][AEEA][Aun]-OH; thioether N-14) | 20.7
CC(C)C[C@@H]1NC(=O)[C@H](Cc2c[nH]c3ccccc23)NC(=O)[C@H](CC(=O)O)NC(=O)[C@H](Cc2ccc(OCC(=O)O)cc2)NC(=O)[C@H](Cc2ccc(OCC(=O)O)cc2)NC(=O)CSC[C@@H](C(=O)N[C@@H](CCN)C(=O)NCCOCCOCC(=O)NCCOCCOCC(=O)NCCCCCCCCCCC(=O)O)NC(=O)[C@H](CCC(=O)O)NC(=O)[C@H](C(C)(C)O)NC(=O)[C@H](CC2CCCCC2)NC(=O)[C@H](CCN)NC(=O)[C@@H](CC(C)C)NC(=O)[C@H](C)N(C)C(=O)[C@H](CCC(N)=O)NC(=O)[C@H](Cc2ccc(-c3ccccc3)cc2)NC1=O [Example 2517] ({CH2CO}-Y(Carboxymethyl)Y(Carboxymethyl)DWL[Bip]Q[NMeA][dL][Dab][Cha][Val(3-OH)]EC[Dab][AEEA][AEEA][Aun]-OH; thioether N-14) | 30
Cc1cccc(C[C@@H]2NC(=O)[C@H](CC(=O)O)NC(=O)[C@H](Cc3ccc(OCC(=O)O)cc3)NC(=O)[C@H](CCN)NC(=O)CSC[C@@H](C(=O)N[C@@H](CCN)C(=O)NCCOCCOCC(=O)NCCOCCOCC(=O)NCCCCCCCCCCC(=O)O)NC(=O)[C@H](CCC(=O)O)NC(=O)[C@H](C(C)(C)O)NC(=O)[C@H](CC3CCCCC3)NC(=O)[C@H](CCN)NC(=O)[C@@H](CC(C)C)NC(=O)[C@H](C)N(C)C(=O)[C@H](Cc3ccc(C(=O)O)cc3)NC(=O)[C@H](Cc3ccc(-c4ccccc4)cc3)NC(=O)[C@H](Cc3ccc(C(=O)O)cc3)NC2=O)c1 [Example 2518] ({CH2CO}-[Dab]Y(Carboxymethyl)D[Phe(3-Me)][Phe(4-COOH)][Bip][Phe(4-COOH)][NMeA][dL][Dab][Cha][Val(3-OH)]EC[Dab][AEEA][AEEA][Aun]-OH; thioether N-14) | 14.3
Cc1cccc(C[C@@H]2NC(=O)[C@H](CC(=O)O)NC(=O)[C@H](Cc3ccc(C(=O)O)cc3)NC(=O)[C@H](CCN)NC(=O)CSC[C@@H](C(=O)N[C@@H](CCN)C(=O)NCCOCCOCC(=O)NCCOCCOCC(=O)NCCCCCCCCCCC(=O)O)NC(=O)[C@H](CCC(=O)O)NC(=O)[C@H](C(C)(C)O)NC(=O)[C@H](CC3CCCCC3)NC(=O)[C@H](CCN)NC(=O)[C@@H](CC(C)C)NC(=O)[C@H](C)N(C)C(=O)[C@H](Cc3ccc(C(=O)O)cc3)NC(=O)[C@H](Cc3ccc(-c4ccccc4)cc3)NC(=O)[C@H](Cc3ccc(C(=O)O)cc3)NC2=O)c1 [Example 2519] ({CH2CO}-[Dab][Phe(4-COOH)]D[Phe(3-Me)][Phe(4-COOH)][Bip][Phe(4-COOH)][NMeA][dL][Dab][Cha][Val(3-OH)]EC[Dab][AEEA][AEEA][Aun]-OH; thioether N-14) | 13.1
Cc1cccc(C[C@@H]2NC(=O)[C@H](CC(=O)O)NC(=O)[C@H](Cc3ccc(C(=O)O)cc3)NC(=O)[C@H](CCN)NC(=O)CSC[C@@H](C(=O)N[C@@H](CCN)C(=O)NCCOCCOCC(=O)NCCOCCOCC(=O)NCCCCCCCCCCC(=O)O)NC(=O)[C@H](CCC(=O)O)NC(=O)[C@H](C(C)C)NC(=O)[C@H](CC3CCCCC3)NC(=O)[C@H](CCN)NC(=O)[C@@H](CC(C)C)NC(=O)[C@H](C)N(C)C(=O)[C@H](Cc3ccc(C(=O)O)cc3)NC(=O)[C@H](Cc3ccc(-c4ccccc4)cc3)NC(=O)[C@H](Cc3ccc(C(=O)O)cc3)NC2=O)c1 [Example 2521] ({CH2CO}-[Dab][Phe(4-COOH)]D[Phe(3-Me)][Phe(4-COOH)][Bip][Phe(4-COOH)][NMeA][dL][Dab][Cha]VEC[Dab][AEEA][AEEA][Aun]-OH; thioether N-14) | 13.4
CCC(C)[C@@H]1NC(=O)[C@H](Cc2ccc(-c3ccccc3)cc2)NC(=O)[C@H](C(C)C)NC(=O)[C@H](Cc2c[nH]c3ccccc23)NC(=O)[C@H](CC(=O)O)NC(=O)[C@H](Cc2ccc(C(=O)O)cc2)NC(=O)[C@H](Cc2ccc(OCC(=O)O)cc2)NC(=O)CSC[C@@H](C(=O)N[C@@H](CCN)C(=O)NCCOCCOCC(=O)NCCCCCCCCCCC(=O)O)NC(=O)[C@H](C(C)O)NC(=O)[C@H](C(C)(C)O)NC(=O)[C@H](CC2CCCCC2)NC(=O)[C@H](Cc2cnc[nH]2)NC(=O)[C@@H](CC(C)C)NC(=O)[C@H](C)N(C)C1=O (stereo partly drawn) [Example 2522] ({CH2CO}-Y(Carboxymethyl)[Phe(4-COOH)]DWV[Bip][Ile(3ξ)][NMeA][dL]H[Cha][Val(3-OH)][Thr(3ξ)]C[Dab][AEEA][Aun]-OH; thioether N-14) | 25.7
Cc1cccc(C[C@@H]2NC(=O)[C@H](CC(=O)O)NC(=O)[C@H](Cc3ccc(C#N)cc3)NC(=O)[C@H](C(C)O)NC(=O)CSC[C@@H](C(=O)N[C@@H](CCN)C(=O)NCCOCCOCC(=O)NCCOCCOCC(=O)NCCCCCCCCCCC(=O)O)NC(=O)[C@H](CCC(=O)O)NC(=O)[C@H](C(C)C)NC(=O)[C@H](CC3CCCCC3)NC(=O)[C@H](CCN)NC(=O)[C@@H](CC(C)C)NC(=O)[C@H](C)N(C)C(=O)[C@H](Cc3ccc(OCC(=O)O)cc3)NC(=O)[C@H](Cc3ccc(-c4ccccc4)cc3)NC(=O)[C@H](Cc3cccc(F)c3)NC2=O)c1 (stereo partly drawn) [Example 2526] ({CH2CO}-[Thr(3ξ)][Phe(4-CN)]D[Phe(3-Me)][Phe(3-F)][Bip]Y(Carboxymethyl)[NMeA][dL][Dab][Cha]VEC[Dab][AEEA][AEEA][Aun]-OH; thioether N-14) | 16.9

Stronger by IC50, values ahead:

IC50 [nM] | SMILES
8 | Cc1cccc(C[C@@H]2NC(=O)[C@H](CC(=O)O)NC(=O)[C@H](Cc3ccc(OCC(=O)O)cc3)NC(=O)[C@H](CCN)NC(=O)CSC[C@@H](C(=O)N[C@@H](CCN)C(=O)NCCOCCOCC(=O)NCCOCCOCC(=O)NCCCCCCCCCCC(=O)O)NC(=O)[C@H](Cc3cnc[nH]3)NC(=O)[C@H](C(C)(C)O)NC(=O)[C@H](CC3CCCCC3)NC(=O)[C@H](CCN)NC(=O)[C@@H](CC(C)C)NC(=O)[C@H](C)N(C)C(=O)[C@H](Cc3ccc(OCC(=O)O)cc3)NC(=O)[C@H](Cc3ccc(-c4ccccc4)cc3)NC(=O)[C@H](Cc3ccc(OCC(=O)O)cc3)NC2=O)c1 [Example 2520] ({CH2CO}-[Dab]Y(Carboxymethyl)D[Phe(3-Me)]Y(Carboxymethyl)[Bip]Y(Carboxymethyl)[NMeA][dL][Dab][Cha][Val(3-OH)]HC[Dab][AEEA][AEEA][Aun]-OH; thioether N-14)
7.9 | Cc1cccc(C[C@@H]2NC(=O)[C@H](CC(=O)O)NC(=O)[C@H](Cc3ccc(C#N)cc3)NC(=O)[C@H](C(C)O)NC(=O)CSC[C@@H](C(=O)N[C@@H](CCN)C(=O)NCCOCCOCC(=O)NCCOCCOCC(=O)NCCCCCCCCCCC(=O)O)NC(=O)[C@H](Cc3cnc[nH]3)NC(=O)[C@H](C(C)O)NC(=O)[C@H](CC3CCCCC3)NC(=O)[C@H](CCN)NC(=O)[C@@H](CC(C)C)NC(=O)[C@H](C)N(C)C(=O)[C@H](Cc3ccc(OCC(=O)O)cc3)NC(=O)[C@H](Cc3ccc(-c4ccccc4)cc3)NC(=O)[C@H](Cc3ccc(OCC(=O)O)cc3)NC2=O)c1 (stereo partly drawn) [Example 2525] ({CH2CO}-[Thr(3ξ)][Phe(4-CN)]D[Phe(3-Me)]Y(Carboxymethyl)[Bip]Y(Carboxymethyl)[NMeA][dL][Dab][Cha][Thr(3ξ)]HC[Dab][AEEA][AEEA][Aun]-OH; thioether N-14)
7.1 | CCC(C)[C@@H]1NC(=O)[C@H](Cc2ccc(-c3ccccc3)cc2)NC(=O)[C@H](C(C)C)NC(=O)[C@H](Cc2c[nH]c3ccccc23)NC(=O)[C@H](CC(=O)O)NC(=O)[C@H](Cc2ccc(C(=O)O)cc2)NC(=O)[C@H](Cc2ccc(OCC(=O)O)cc2)NC(=O)CSC[C@@H](C(=O)N[C@@H](CCN)C(=O)NCCOCCOCC(=O)NCCCCCCCCCCC(=O)O)NC(=O)[C@H](CCCNC(N)=O)NC(=O)[C@H](C(C)(C)O)NC(=O)[C@H](CC2CCCCC2)NC(=O)[C@H](Cc2cnc[nH]2)NC(=O)[C@@H](CC(C)C)NC(=O)[C@H](C)N(C)C1=O (stereo partly drawn) [Example 2523] ({CH2CO}-Y(Carboxymethyl)[Phe(4-COOH)]DWV[Bip][Ile(3ξ)][NMeA][dL]H[Cha][Val(3-OH)][Cit]C[Dab][AEEA][Aun]-OH; thioether N-14)
3.1 | CCC(C)[C@@H]1NC(=O)[C@H](Cc2ccc(-c3ccccc3)cc2)NC(=O)[C@H](CC(C)C)NC(=O)[C@H](Cc2c[nH]c3ccccc23)NC(=O)[C@H](CC(=O)O)NC(=O)[C@H](Cc2ccc(OCC(=O)O)cc2)NC(=O)[C@H](Cc2ccc(OCC(=O)O)cc2)NC(=O)CSC[C@@H](C(=O)N[C@@H](CCN)C(=O)NCCOCCOCC(=O)NCCCCCCCCCCC(=O)O)NC(=O)[C@H](Cc2cnc[nH]2)NC(=O)[C@H](C(C)(C)O)NC(=O)[C@H](CC2CCCCC2)NC(=O)[C@H](CCN)NC(=O)[C@@H](CC(C)C)NC(=O)[C@H](C)N(C)C1=O (stereo partly drawn) [Example 2515] ({CH2CO}-Y(Carboxymethyl)Y(Carboxymethyl)DWL[Bip][Ile(3ξ)][NMeA][dL][Dab][Cha][Val(3-OH)]HC[Dab][AEEA][Aun]-OH; thioether N-14)
